{
  "source": "patent US8697727B2",
  "about": "“N-substituted-heterocycloalkyloxybenzamide compounds and methods of use” (Rigel Pharmaceuticals, Inc., priority 2006, dated 2014)",
  "assay_type_in_all_cases": "cell-based",
  "key": {"[1]": {"system": "Human liver cells (HepG2)", "test": "Reduction of glycogen content in liver cells (Amplex Red)", "details": "HepG2 cells treated for 16 hours, Amplex Red (FIG. 4)", "method": "The ability of compounds of the present invention to reduce the glycogen content in liver cells was determined using a functional assay. Human liver cells (HepG2) were seeded in a 96 well plate and on the next day were treated with compounds 1, 2, 94 and 95 for 16 hours. The glycogen content of the cells was determined using Amplex Red."}, "[2]": {"system": "AMPK", "test": "AMPK activation, enzyme-linked immunosorbent assay", "how_it_was_run": "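AMPK activity in cells was measured by enzyme-linked immunosorbent assay as the relative concentration of phosphorylated acetyl-CoA carboxylase, which AMPK produces. From this, an EC50 for AMPK activation was determined for each compound. Ranges used: less than 1 μM, 1-10 μM, 10-20 μM, 20-50 μM, 50-100 μM, and >100 μM.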"}, "[3]": {"system": "AMPK", "test": "Western blot assay for AMPK activity", "details": "gel electrophoresis data relative to GST-gAd (FIG. 3)", "method": "Western blot assays for AMPK activity were performed on compounds 1, 2, 94 and 95. FIG. 3 presents gel electrophoresis data for compounds 1, 2, 94 and 95 relative to GST-gAd."}},
  "data": [
    {"smiles": "COc1ccc(CN2CCC(Oc3ccc(C(=O)NC4CCN(Cc5ccccc5)CC4)cc3Cl)CC2)cc1", "note": "[Compound 1, N-(1-benzylpiperidin-4-yl)-3-chloro-4-(1-(4-methoxybenzyl)piperidin-4-yloxy)benzamide]", "values": [
      {"measurement": "IC50 value, glycogen content", "setting": "[1]", "result": "sub-micromolar"},
      {"measurement": "EC50", "setting": "[2]", "result": "< 1000", "unit": "nM"},
      {"measurement": "AMPK activity in the western blot assay", "setting": "[3]", "result": "strong activity"}
    ]},
    {"smiles": "CC(C)(C)OC(=O)NCCCNC(=O)c1ccc(OC2CCN(Cc3ccc(C(F)(F)F)cc3)CC2)cc1", "note": "[Compound 95, tert-butyl 3-(4-(1-(4-(trifluoromethyl)benzyl)piperidin-4-yloxy)benzamido)propylcarbamate]", "values": [
      {"measurement": "IC50 value, glycogen content", "setting": "[1]", "result": "sub-micromolar"},
      {"measurement": "EC50", "setting": "[2]", "result": "< 1000", "unit": "nM"},
      {"measurement": "AMPK activity in the western blot assay", "setting": "[3]", "result": "strong activity"}
    ]},
    {"smiles": "COc1cc(C(=O)NCCCNC(=O)OC(C)(C)C)ccc1OC1CCN(Cc2ccc(C(F)(F)F)cc2)CC1", "note": "[Compound 94, tert-butyl 3-(3-methoxy-4-(1-(4-(trifluoromethyl)benzyl)piperidin-4-yloxy)benzamido)propylcarbamate]", "values": [
      {"measurement": "IC50 value, glycogen content", "setting": "[1]", "result": "sub-micromolar"},
      {"measurement": "EC50", "setting": "[2]", "result": "< 1000", "unit": "nM"},
      {"measurement": "AMPK activity in the western blot assay", "setting": "[3]", "result": "strong activity"}
    ]},
    {"smiles": "COc1cc(C(=O)NC2CCN(Cc3ccccc3)CC2)ccc1OC1CCN(Cc2ccccc2)CC1", "note": "[Compound 2, N-(1-benzylpiperidin-4-yl)-4-(1-benzylpiperidin-4-yloxy)-3-methoxybenzamide]", "values": [
      {"measurement": "IC50 value, glycogen content", "setting": "[1]", "result": "sub-micromolar"},
      {"measurement": "EC50", "setting": "[2]", "result": "< 1000", "unit": "nM"},
      {"measurement": "AMPK activity in the western blot assay", "setting": "[3]", "result": "strong activity"}
    ]}
  ]
}
